Activity calls are given as the source filed them. No rule for the calls is given here.
Test system: CCRIS mutagenicity, Ames/micronucleus/aberration tests
Assay: CCRIS mutagenicity studies
[1] = Test System: AMES SALMONELLA TYPHIMURIUM, Strain/Indicator: TA100, Metabolic Activation: NONE, Method: STANDARD PLATE
[2] = Test System: AMES SALMONELLA TYPHIMURIUM, Strain/Indicator: TA1537, Metabolic Activation: NONE, Method: STANDARD PLATE
[3] = Test System: E. COLI, Strain/Indicator: WP2 UVRA, Metabolic Activation: NONE, Method: STANDARD PLATE
[4] = Test System: AMES SALMONELLA TYPHIMURIUM, Strain/Indicator: TA98, Metabolic Activation: NONE, Method: STANDARD PLATE
[5] = Test System: AMES SALMONELLA TYPHIMURIUM, Strain/Indicator: TA98, Metabolic Activation: RAT, LIVER, S-9, AROCLOR 1254, Method: STANDARD PLATE
[6] = Test System: AMES SALMONELLA TYPHIMURIUM, Strain/Indicator: TA100, Metabolic Activation: RAT, LIVER, S-9, AROCLOR 1254, Method: STANDARD PLATE

In the case of O=C1c2c(O)cccc2Cc2cccc(O)c21, the mutagenic call (Test System: AMES SALMONELLA TYPHIMURIUM, Strain/Indicator: TA97, Metabolic Activation: HAMSTER, LIVER, S-9, AROCLOR 1254 (10%), Method: PREINCUBATION) is reported as “inactive; negative”, the mutagenic call (Test System: AMES SALMONELLA TYPHIMURIUM, Strain/Indicator: TA97, Metabolic Activation: HAMSTER, LIVER, S-9, AROCLOR 1254 (30%), Method: PREINCUBATION) is reported as “inactive; negative” and the mutagenic call (Test System: AMES SALMONELLA TYPHIMURIUM, Strain/Indicator: TA97, Metabolic Activation: NONE, Method: PREINCUBATION) is reported as “inactive; negative”. For the same compound, the mutagenic call (Test System: AMES SALMONELLA TYPHIMURIUM, Strain/Indicator: TA97, Metabolic Activation: RAT, LIVER, S-9, AROCLOR 1254 (10%), Method: PREINCUBATION) was “inactive; negative”, the mutagenic call (Test System: AMES SALMONELLA TYPHIMURIUM, Strain/Indicator: TA97, Metabolic Activation: RAT, LIVER, S-9, AROCLOR 1254 (30%), Method: PREINCUBATION) was “inactive; negative” and the mutagenic call (Test System: AMES SALMONELLA TYPHIMURIUM, Strain/Indicator: TA98, Metabolic Activation: HAMSTER, LIVER, S-9, AROCLOR 1254 (10%), Method: PREINCUBATION) was “inactive; negative”. For the same compound, the mutagenic call (Test System: AMES SALMONELLA TYPHIMURIUM, Strain/Indicator: TA98, Metabolic Activation: HAMSTER, LIVER, S-9, AROCLOR 1254 (30%), Method: PREINCUBATION) was “inactive; negative”, the mutagenic call (Test System: AMES SALMONELLA TYPHIMURIUM, Strain/Indicator: TA98, Metabolic Activation: NONE, Method: PREINCUBATION) was “inactive; negative” and the mutagenic call (Test System: AMES SALMONELLA TYPHIMURIUM, Strain/Indicator: TA98, Metabolic Activation: RAT, LIVER, S-9, AROCLOR 1254 (10%), Method: PREINCUBATION) was “inactive; negative”. For the same compound, the mutagenic call (Test System: AMES SALMONELLA TYPHIMURIUM, Strain/Indicator: TA98, Metabolic Activation: RAT, LIVER, S-9, AROCLOR 1254 (30%), Method: PREINCUBATION) was “inactive; negative”, the mutagenic call (Test System: AMES SALMONELLA TYPHIMURIUM, Strain/Indicator: TA100, Metabolic Activation: FISH, LIVER, S-9, 3-METHYLCHOLANTHRENE, Method: STANDARD PLATE) was “inactive; negative” and the mutagenic call (Test System: AMES SALMONELLA TYPHIMURIUM, Strain/Indicator: TA100, Metabolic Activation: HAMSTER, LIVER, S-9, AROCLOR 1254 (10%), Method: PREINCUBATION) was “inactive; negative”. For the same compound, the mutagenic call (Test System: AMES SALMONELLA TYPHIMURIUM, Strain/Indicator: TA100, Metabolic Activation: HAMSTER, LIVER, S-9, AROCLOR 1254 (30%), Method: PREINCUBATION) was “inactive; negative”, the mutagenic call (Test System: AMES SALMONELLA TYPHIMURIUM, Strain/Indicator: TA100, Metabolic Activation: NONE, Method: PREINCUBATION) was “inactive; negative” and the mutagenic call [1] was “inactive; negative”. The mutagenic call (Test System: AMES SALMONELLA TYPHIMURIUM, Strain/Indicator: TA100, Metabolic Activation: RAT, LIVER, S-9, AROCLOR 1254 (10%), Method: PREINCUBATION) was “inactive; negative”, the mutagenic call (Test System: AMES SALMONELLA TYPHIMURIUM, Strain/Indicator: TA100, Metabolic Activation: RAT, LIVER, S-9, AROCLOR 1254 (30%), Method: PREINCUBATION) was “inactive; negative” and the mutagenic call (Test System: AMES SALMONELLA TYPHIMURIUM, Strain/Indicator: TA1535, Metabolic Activation: HAMSTER, LIVER, S-9, AROCLOR 1254 (10%), Method: PREINCUBATION) was “inactive; negative”. The mutagenic call (Test System: AMES SALMONELLA TYPHIMURIUM, Strain/Indicator: TA1535, Metabolic Activation: HAMSTER, LIVER, S-9, AROCLOR 1254 (30%), Method: PREINCUBATION) was “inactive; negative”, the mutagenic call (Test System: AMES SALMONELLA TYPHIMURIUM, Strain/Indicator: TA1535, Metabolic Activation: NONE, Method: PREINCUBATION) was “inactive; negative” and the mutagenic call (Test System: AMES SALMONELLA TYPHIMURIUM, Strain/Indicator: TA1535, Metabolic Activation: RAT, LIVER, S-9, AROCLOR 1254 (10%), Method: PREINCUBATION) was “inactive; negative”. The mutagenic call (Test System: AMES SALMONELLA TYPHIMURIUM, Strain/Indicator: TA1535, Metabolic Activation: RAT, LIVER, S-9, AROCLOR 1254 (30%), Method: PREINCUBATION) was “inactive; negative”, the mutagenic call [2] was “inactive; negative” and the mutagenic call (Test System: AMES SALMONELLA TYPHIMURIUM, Strain/Indicator: TA1537, Metabolic Activation: RAT, LIVER, S-9, PHENOBARBITAL AND BETA-NAPHTHOFLAVONE, Method: STANDARD PLATE) was “active; positive”. For the same compound, the mutagenic call (Test System: E. COLI, Strain/Indicator: WP2, Metabolic Activation: NONE, Method: STANDARD PLATE) was “inactive; negative”, the mutagenic call (Test System: E. COLI, Strain/Indicator: WP2, Metabolic Activation: RAT, LIVER, S-9, AROCLOR 1254, Method: STANDARD PLATE) was “inactive; negative” and the mutagenic call [3] was “inactive; negative”. For the same compound, the mutagenic call (Test System: E. COLI, Strain/Indicator: WP2 UVRA, Metabolic Activation: RAT, LIVER, S-9, AROCLOR 1254, Method: STANDARD PLATE) was “inactive; negative”.

For Cc1cccnc1, the mutagenic call (Test System: AMES SALMONELLA TYPHIMURIUM, Strain/Indicator: TA97, Metabolic Activation: NONE, Method: STANDARD PLATE) was “inactive; negative”, the mutagenic call (Test System: AMES SALMONELLA TYPHIMURIUM, Strain/Indicator: TA97, Metabolic Activation: RAT, LIVER, S-9, AROCLOR 1254, Method: STANDARD PLATE) was “inactive; negative” and the mutagenic call [4] was “inactive; negative”. The mutagenic call [5] was “inactive; negative”, the mutagenic call [1] was “inactive; negative” and the mutagenic call [6] was “inactive; negative”. For the same compound, the mutagenic call (Test System: AMES SALMONELLA TYPHIMURIUM, Strain/Indicator: TA102, Metabolic Activation: NONE, Method: STANDARD PLATE) was “inactive; negative” and the mutagenic call (Test System: AMES SALMONELLA TYPHIMURIUM, Strain/Indicator: TA102, Metabolic Activation: RAT, LIVER, S-9, AROCLOR 1254, Method: STANDARD PLATE) was “inactive; negative”.

c1ccc2c(c1)ccc1c2ccc2cccnc21 was tested, and the mutagenic call [4] was “inactive; negative”, the mutagenic call [5] was “active; positive” and the mutagenic call [6] was “active; positive”.

In the case of CCc1cccc(NC(=O)c2csc([N+](=O)[O-])c2)c1, the mutagenic call [4] is reported as “active; positive” and the mutagenic call [1] is reported as “active; positive”.

For CCc1cccc2c3c([nH]c12)C(C)(CC)OCC3 (stereo unspecified), the mutagenic call [4] was “inactive; negative”, the mutagenic call (Test System: AMES SALMONELLA TYPHIMURIUM, Strain/Indicator: TA98, Metabolic Activation: RAT, LIVER, S-9, Method: STANDARD PLATE) was “inactive; negative” and the mutagenic call [1] was “inactive; negative”. The mutagenic call (Test System: AMES SALMONELLA TYPHIMURIUM, Strain/Indicator: TA100, Metabolic Activation: RAT, LIVER, S-9, Method: STANDARD PLATE) was “inactive; negative”, the mutagenic call (Test System: AMES SALMONELLA TYPHIMURIUM, Strain/Indicator: TA1535, Metabolic Activation: NONE, Method: STANDARD PLATE) was “inactive; negative” and the mutagenic call (Test System: AMES SALMONELLA TYPHIMURIUM, Strain/Indicator: TA1535, Metabolic Activation: RAT, LIVER, S-9, Method: STANDARD PLATE) was “inactive; negative”. The mutagenic call [2] was “inactive; negative”, the mutagenic call (Test System: AMES SALMONELLA TYPHIMURIUM, Strain/Indicator: TA1537, Metabolic Activation: RAT, LIVER, S-9, Method: STANDARD PLATE) was “inactive; negative” and the mutagenic call [3] was “inactive; negative”. For the same compound, the mutagenic call (Test System: E. COLI, Strain/Indicator: WP2 UVRA, Metabolic Activation: RAT, LIVER, S-9, Method: STANDARD PLATE) was “inactive; negative”.

Reference: PubChem BioAssay AID1259407 (Chemical Carcinogenesis Research Information System (CCRIS), 2018)
